Measurements: US20060178307A1, “Modulation of NMDA receptor currents via orexin receptor and/or CRF receptor” (priority 2005, published 2006)
Entries after “also recorded” stand apart in the source; their conditions may differ. Where no end group is shown, it is not given here.

How the values were obtained:
10% ethanol consumption = assay: Voluntary ethanol consumption, limited-access two-bottle choice, icv infusion; type: in vivo, Long Evans rats; conditions: 5 μg ICV, n=14
Procedure: Agents in these in vivo studies were administered to either the lateral ventricle (icv) or ventral tegmental area (VTA) in rats by cannulae, which were implanted as follows. One week after the rats achieved baseline drinking and lever pressing levels in the 2-bottle choice and ethanol self-administration paradigms described below, they were anesthetized with 75 mg/kg pentobarbital sodium and placed in a stereotaxic frame. The head was shaved and scrubbed with an antiseptic solution of betadine/2% H2O2, followed by 2.5% topical xylocalne jelly. The skull was exposed and two to three holes were drilled for implantation of sterile miniature skull screws (⅛″, Small Parts, Inc.). […]
These experiments test the effects of the CRF system on voluntary ethanol consumption using a limited-access paradigm. […] Animal weights were measured daily in order to calculate the gram per kilogram intake. Ethanol preference (%) was calculated as the grams of ethanol consumed divided by the total fluid consumption (grams of ethanol+grams of water). The data was corrected for evaporation and spillage by subtracting the mean fluid loss measured in four drinking tubes placed on empty cages. […]
The effects of CRF (5 μg) and the CRF inhibitor CRF (6-33) (5 μg) on limited access (30 min) 10% ethanol drinking were measured using a limited-access two-bottle choice procedure.

NMDAR eEPSCs = conditions: cited from earlier work
[1] = tested on: NMDAR-mediated currents in VTA dopamine cells; assay: CRF-related peptides on NMDAR-mediated currents at excitatory synapses onto VTA dopamine cells; type: cell-based; conditions: mammalian brain

Row | Substance | 10% ethanol consumption (10% ethanol consumption; limited access, compared to CRF alone) | water consumption (10% ethanol consumption) | potentiation of NMDARs (NMDAR eEPSCs; 10 nM CRF, mice) | NMDAR eEPSCs, concentration dependent (NMDAR eEPSCs; mice (FIG. 13)) | potentiation of NMDAR currents [1]
1 | CRF (6-33): indirect CRF receptor antagonist that acts by displacing CRF from CRF-BP (ISLDLTFHLLREVLEMARAEQLAQQAHS; Corticoliberin; UniProt P06850 159-186, looked up, fragment) | significantly reduced | no effect; also recorded: did not reduce | – | – | –
2 | CRF: Corticotrophin-releasing factor, a 41 amino acid peptide; direct CRF receptor agonist (SEEPPISLDLTFHLLREVLEMARAEQLAQQAHSNRKLMEII; ends and bridges not checked; UniProt P06850 154-194, looked up) | – | – | no potentiation | increased | increases
